Reference: patent US20250195515A1, “COMPOSITION FOR TREATING THE EYE” (BITOP AG, priority 2014, published 2025)

Legend:
[1] = Compression of meibomian lipid monolayers on PBS subphase with different ectoine concentrations (surface pressure-area isotherms); assay type: physicochemical, human
Procedure: Meibomian lipids were obtained from the meibomian glands of four healthy volunteers. The lipids were dissolved in chloroform/methanol (1:1, v/v) and applied to an aqueous subphase (PBS, phosphate-buffered saline solution, pH 7.4, T=20° C.). After an equilibration time of 10-15 min, the monolayers were compressed at 2.9 cm^2/min. The subphase was provided with different ectoine concentrations. The result of the compression of the lipid film on a PBS subphase without ectoine is depicted in FIG. 2A. No phase transitions are observed up to a surface pressure of 20 mN/m. […] Ectoine therefore enlarges the spaces between the molecules.

[2] = Atomic force microscopy (AFM) topography of Langmuir-Blodgett-transferred meibomian lipid layers; assay type: physicochemical, human
Procedure: The topography of the surface of the lipid layers was examined with the aid of an atomic force microscope (atomic force microscopy, AFM). To this end, the lipid layer was transferred to a solid surface using the Langmuir-Blodgett technique; thereafter, the AFM measurements were carried out at pressures of 5 mN/m, 20 mN/m and 23.5 mN/m and 20° C. At a relatively low pressure of 5 mN/m, it was possible to observe small fibrous structures of up to approx. 5 nm in height distributed over the entire area. Layers of hydrophobic lipids such as cholesteryl esters and triglycerides might be involved here. At higher pressures of 20 mN/m, the number of fibrous structures increased.
In the presence of 100 mM ectoine, droplet-type structures of up to approx. 300 nm in height were observed. At higher ectoine concentrations, the diameter of the droplet-type structures increased.

[3] = test system: patients suffering from a mild to moderate form of keratoconjunctivitis sicca; assay: Clinical study, tear break-up time (TBUT); assay type: in vivo, human
Procedure: (§1) In one study, 64 patients suffering from a mild to moderate form of keratoconjunctivitis sicca were examined. […] The majority (72%) of the patients were female. For at least one eye in each case, the tear break-up time (TBUT), i.e., the time until dry spots reappear on the cornea after blinking, was less than 10 sec. The TBUT was used as the main parameter for the treatment assessment. Over a period of 28 days, 34 patients were treated with an ectoine-containing composition and the other 30 patients with hyaluronic acid as reference. 59 of the patients finished the study as planned; 5 patients left prematurely. On average, the TBUT improved within the 28-day observation period by 2.6 sec (p=0.0011) for ectoine-treated patients and by 1.1 sec (p=0.1686) for the hyaluronic acid-treated patients.

[4] = test system: patients suffering from a mild to moderate form of keratoconjunctivitis sicca; assay: Clinical study, OSDI (ocular surface disease index) quality of life; assay type: in vivo, human; conditions: within the 28-day observation period
Procedure: as §1, with “The quality of life of” for “On average,”, “patients was determined on” for “TBUT improved within”, “basis of the OSDI (ocular surface disease index). The OSDI assessment consists of 12 questions answered by the patients on a scale of 0 to 4 (0=never; 4=always). The higher the OSDI value, the stronger the impairment of the daily life of the disease. Within the” for “28-day”, “period, it was possible to observe a decrease of 17.7 points in the case of the” for “period by 2.6 sec (p=0.0011) for”, “of 17.2 points in the case of” for “by 1.1 sec (p=0.1686) for”

[5] = test system: patients suffering from a mild to moderate form of keratoconjunctivitis sicca; assay: Clinical study, lacrimation according to Schirmer's test II; assay type: in vivo, human
Procedure: In one study, 64 patients suffering from a mild to moderate form of keratoconjunctivitis sicca were examined. […] The majority (72%) of the patients were female. For at least one eye in each case, the tear break-up time (TBUT), i.e., the time until dry spots reappear on the cornea after blinking, was less than 10 sec. The TBUT was used as the main parameter for the treatment assessment. Over a period of 28 days, 34 patients were treated with an ectoine-containing composition and the other 30 patients with hyaluronic acid as reference. 59 of the patients finished the study as planned; 5 patients left prematurely. Lacrimation was examined according to the Schirmer's test II. This was lower for the ectoine patients than for the hyaluronic acid patients both at the start (8.8 mm/5 min compared to 16.0 mm/5 min) and at the end (10.6 mm/5 min compared to 16.8 mm/5 min) of the treatment, it being possible to observe a more distinct improvement for the ectoine-treated patients than for the hyaluronic acid-treated patients (1.8 mm/5 min compared to 0.8 mm/5 min).

[6] = test system: patients suffering from a mild to moderate form of keratoconjunctivitis sicca; assay type: in vivo, human; conditions: for tolerability: human, in vivo
Procedure: as §1, with “prematurely. […] Especially” for “prematurely. On average,”, “the sensation of foreign bodies and the sensation of tired eyes were rated as” for “the TBUT”, “improved following” for “improved within”, “the treatment. 78.8% of the” for “the 28-day observation period by 2.6 sec (p=0.0011) for”, “and 71.4% of” for “and by 1.1 sec (p=0.1686) for”, “acid-treated patients would continue use.” for “acid-treated patients.”

Molecule | hysteresis of compression-expansion curves ([1]; ectoine in PBS subphase vs without ectoine) | shift of the compression isotherm (area per molecule) ([1]; ectoine in PBS subphase, pH 7.4, 20° C., vs subphase without ectoine, effect is concentration-dependent) | formation of droplet-type structures ([2]; 50 mM ectoine, AFM) | thickness of the lipid layer at the sites of the droplet-type clusters ([2]; 100 mM ectoine in the lacrimal fluid (model of FIG. 1B), approx. 20 nm in the absence of ectoine) | height of droplet-type structures ([2]; 100 mM ectoine, AFM, 20° C.) [nm] | diameter of the droplet-type structures ([2]; ectoine concentrations higher than 100 mM, AFM) | improvement of TBUT in patients with severe keratoconjunctivitis sicca and TBUT<5 sec ([3]; 28 days, ectoine compared with hyaluronic acid) | improvement of TBUT on average ([3]; within the 28-day observation period) [s] | decrease of OSDI [4] [points] | lacrimation, Schirmer's test II, at the end of the treatment ([5]; end of the 28-day treatment) [mm/5 min] | improvement of lacrimation, Schirmer's test II ([5]; end vs start of the 28-day treatment) [mm/5 min] | lacrimation, Schirmer's test II, at the start of the treatment ([5]; start of the treatment (baseline)) [mm/5 min] | estimation of the effectiveness of the treatment according to patients' estimates ([6]; after 28-day treatment) [points] | tolerability [6]
CC1=N[C@H](C(=O)O)CCN1 [ectoine, (S)-2-methyl-1,4,5,6-tetrahydropyrimidine-4-carboxylic acid] | no significant differences | isotherm shifts in the direction of a larger area per molecule | comparatively scattered and distinctly smaller | approx. 200 nm | ≤ 300 | increased | stronger improvement | 2.6 | 17.7 | 10.6 | 1.8 | 8.8 | 0.9 | generally well tolerated
hyaluronic acid [reference compound] |  |  |  |  |  |  |  |  |  |  |  |  |  | generally well tolerated
